Results taken from publication PMC6681697, “One-Step ^18F-Labeling and Preclinical Evaluation of Prostate-Specific Membrane Antigen Trifluoroborate Probes for Cancer Imaging” (Journal of Nuclear Medicine, 2019).
Where two headings read alike, the source gives them in different places. Blank lines part the entries; values can stand above or below the compound they belong to.

Tests used:
PSMA = biological target: T1, PSMA (Homo sapiens, UniProt Q04609); assay: In vitro competition binding assay on LNCaP cells with ^18F-DCFPyL as radioligand
T1 construct: because it expresses PSMA endogenously and is commonly used to evaluate PSMA-targeting radiotracers; endogenous in cells; host or cells: LNCaP cells
T1 sequence (Q04609 whole entry): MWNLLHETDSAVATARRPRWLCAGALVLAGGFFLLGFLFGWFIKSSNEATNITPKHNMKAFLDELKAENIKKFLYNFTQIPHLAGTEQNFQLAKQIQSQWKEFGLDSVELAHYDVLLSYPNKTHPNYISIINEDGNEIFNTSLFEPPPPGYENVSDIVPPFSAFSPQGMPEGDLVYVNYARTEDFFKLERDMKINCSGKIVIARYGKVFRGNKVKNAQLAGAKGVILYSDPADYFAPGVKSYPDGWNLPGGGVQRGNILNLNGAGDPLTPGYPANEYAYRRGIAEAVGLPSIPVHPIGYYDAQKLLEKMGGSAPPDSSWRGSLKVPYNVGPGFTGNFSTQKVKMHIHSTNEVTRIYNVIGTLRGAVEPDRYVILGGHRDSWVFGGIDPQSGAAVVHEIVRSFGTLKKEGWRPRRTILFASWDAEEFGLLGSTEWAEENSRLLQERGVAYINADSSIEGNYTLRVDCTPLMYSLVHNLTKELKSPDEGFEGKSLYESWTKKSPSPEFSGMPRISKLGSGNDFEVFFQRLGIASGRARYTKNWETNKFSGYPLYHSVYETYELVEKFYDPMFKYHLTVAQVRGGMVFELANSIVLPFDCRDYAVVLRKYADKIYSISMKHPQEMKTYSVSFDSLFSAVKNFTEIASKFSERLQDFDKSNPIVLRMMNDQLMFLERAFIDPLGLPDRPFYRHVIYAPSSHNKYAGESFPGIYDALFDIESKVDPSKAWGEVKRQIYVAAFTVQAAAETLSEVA
Description: LNCaP cells were plated onto a 24-well poly-D-lysine coated plate for 48 h (400,000/well). […] Nonspecific binding was determined in the presence of 10 μM unlabeled DCFPyL. The assay mixtures were incubated for 1 h at 37°C with gentle agitation followed by 2 washes with cold HEPES buffered saline. A trypsin solution (0.25%, 400 μL) was then added to each well to harvest the cells. Radioactivity was measured by γ-counting, and Ki values were calculated using the “1 site—fit Ki” built-in model in Prism 7 (GraphPad).

[1] = Distribution coefficient (LogD7.4), shake flask method; type: physicochemical; settings: n-octanol / phosphate buffer 0.1 M pH 7.4; n = 3
Description: LogD7.4 values were measured using the shake flask method. Briefly, an aliquot of ^18F-labeled tracer was added to a vial containing 2.5 mL of n-octanol and 2.5 mL of phosphate buffer (0.1 M, pH 7.4). The mixture was vortexed for 2 min and then centrifuged at 3,000g for 10 min. A sample of the n-octanol (0.1 mL) and buffer (0.1 mL) layers was counted using a γ-counter. Values of LogD7.4 were calculated using the following equation: LogD7.4 = log10 [(counts in n-octanol phase)/(counts in buffer phase)].

LNCaP xenografts = assay: Ex vivo biodistribution and blocking studies in mice bearing LNCaP xenografts; settings: for tumor uptake compared with ^18F-DCFPyL: 1-way ANOVA, Dunnett test; for tumor uptake: LNCaP tumor
Description: Imaging and biodistribution experiments were performed using NODSCID IL2RγKO male mice. All experiments were conducted according to the guidelines established by the Canadian Council on Animal Care and approved by the Animal Ethics Committee of the University of British Columbia. Mice were anesthetized by inhalation with 2% isoflurane in oxygen and implanted subcutaneously with 1 × 10^7 LNCaP cells behind the left shoulder. The mice were imaged or used in biodistribution studies once the tumor reached 5–8 mm in diameter (5–6 wk).
For biodistribution and blocking studies, the mice were injected with 1–3 MBq of radiotracer. At 60 min, the mice were anesthetized with 2% isoflurane inhalation and euthanized by CO2 inhalation. Blood was withdrawn by cardiac puncture, and the organs and tissues of interest were collected, weighed, and counted using an automatic γ-counter (PerkinElmer). Uptake values were expressed as the percentage of the injected dose per gram of tissue (%ID/g).
A standard 1-way ANOVA was performed to determine whether statistically significant differences in tumor uptake occurred between radiotracers. Each radiotracer was compared with ^18F-DCFPyL using the Dunnett test (a many-to-one t test comparison). This analysis was also performed for kidney and blood activity and for tumor-to-blood and tumor-to-muscle ratios. Reported P values were adjusted for multiple comparisons. The analysis was performed using Prism 8 (GraphPad). […]
Statistical analyses were performed using GradPad prism 7. Multiple t tests were performed to compare biodistribution in unblocked and blocked mice, multiple comparisons were corrected using the Holm-Sidak method. The difference was considered statistically significant when p value was < 0.05.
Supplemental Table 1 – Complete biodistribution study for compounds [18F]1–3 […]
Tissue 1h 1h blocked 1h 1h blocked 1h 1h blocked
(%ID/g) n = 8 n = 4 n = 6 n = 4 n = 8 n = 5 […]
(1 picture or pasted object on this page, not shown here)

[2] = 1 h blocked (coinjection of DCFPyL 0.5 mg)

SMILES: C[N+](C)(Cc1ccc(C(=O)NCCCC[C@H](NC(=O)N[C@@H](CCC(=O)O)C(=O)O)C(=O)O)cc1)C[B-](F)(F)F [^18F-1]
Ki (PSMA; LNCaP cells, 0.1 nM ^18F-DCFPyL radioligand, 1 h at 37°C, n = 3): 14.4 ± 2.7 nM
LogD7.4 [1]: −3.43 ± 0.35
T/B (tumor-to-blood ratio) (LNCaP xenografts; 1 h after injection, unblocked): 10.82 ± 1.64
T/K (tumor-to-kidney ratio) (LNCaP xenografts; 1 h after injection, unblocked): 0.07 ± 0.06
T/M (tumor-to-muscle ratio) (LNCaP xenografts; 1 h after injection, unblocked): 23.43 ± 3.71
adrenal uptake (LNCaP xenografts; 1 h after injection, unblocked): 4.77 ± 1.75 %ID/g
blood uptake (LNCaP xenografts; 1 h after injection, unblocked): 0.57 ± 0.15 %ID/g
bone uptake (LNCaP xenografts; 1 h after injection, unblocked): 0.36 ± 0.02 %ID/g
brain uptake (LNCaP xenografts; 1 h after injection, unblocked): 0.04 ± 0.01 %ID/g
fat uptake (LNCaP xenografts; 1 h after injection, unblocked): 0.99 ± 0.39 %ID/g
heart uptake (LNCaP xenografts; 1 h after injection, unblocked): 0.30 ± 0.06 %ID/g
intestine uptake (LNCaP xenografts; 1 h after injection, unblocked): 0.54 ± 0.11 %ID/g
kidney uptake (LNCaP xenografts; 1 h after injection, unblocked): 114.00 ± 41.30 %ID/g
liver uptake (LNCaP xenografts; 1 h after injection, unblocked): 2.90 ± 0.56 %ID/g
lung uptake (LNCaP xenografts; 1 h after injection, unblocked): 1.37 ± 0.36 %ID/g
muscle uptake (LNCaP xenografts; 1 h after injection, unblocked): 0.26 ± 0.08 %ID/g
pancreas uptake (LNCaP xenografts; 1 h after injection, unblocked): 0.55 ± 0.16 %ID/g
spleen uptake (LNCaP xenografts; 1 h after injection, unblocked): 2.67 ± 0.98 %ID/g
stomach uptake (LNCaP xenografts; 1 h after injection, unblocked): 0.12 ± 0.05 %ID/g
testes uptake (LNCaP xenografts; 1 h after injection, unblocked): 0.62 ± 0.15 %ID/g
tumor uptake compared with ^18F-DCFPyL (LNCaP xenografts; 1 h after injection): lower tumor uptake than ^18F-DCFPyL
T/B (tumor-to-blood ratio) (LNCaP xenografts; [2]): 0.91 ± 0.44
T/K (tumor-to-kidney ratio) (LNCaP xenografts; [2]): 0.10 ± 0.03
T/M (tumor-to-muscle ratio) (LNCaP xenografts; [2]): 2.63 ± 1.10
adrenal uptake (LNCaP xenografts; [2]): 0.35 ± 0.14 %ID/g
blood uptake (LNCaP xenografts; [2]): 0.45 ± 0.27 %ID/g
bone uptake (LNCaP xenografts; [2]): 0.30 ± 0.07 %ID/g
brain uptake (LNCaP xenografts; [2]): 0.03 ± 0.01 %ID/g
fat uptake (LNCaP xenografts; [2]): 0.14 ± 0.08 %ID/g
heart uptake (LNCaP xenografts; [2]): 0.15 ± 0.04 %ID/g
intestine uptake (LNCaP xenografts; [2]): 0.57 ± 0.23 %ID/g
kidney uptake (LNCaP xenografts; [2]): 3.54 ± 0.83 %ID/g
liver uptake (LNCaP xenografts; [2]): 3.00 ± 0.53 %ID/g
lung uptake (LNCaP xenografts; [2]): 0.25 ± 0.06 %ID/g
muscle uptake (LNCaP xenografts; [2]): 0.13 ± 0.03 %ID/g
pancreas uptake (LNCaP xenografts; [2]): 0.11 ± 0.03 %ID/g
spleen uptake (LNCaP xenografts; [2]): 0.13 ± 0.03 %ID/g
stomach uptake (LNCaP xenografts; [2]): 0.11 ± 0.08 %ID/g
testes uptake (LNCaP xenografts; [2]): 0.10 ± 0.02 %ID/g
tumor uptake (LNCaP xenografts; 1 h after injection, unblocked): 6.0 ± 1.2 %ID/g
tumor uptake (LNCaP xenografts; 1 h after injection, unblocked, listed as [18F]1): 6.04 ± 1.24 %ID/g
tumor uptake (LNCaP xenografts; [2]): 0.33 ± 0.07 %ID/g

Ki (PSMA): 11.8 ± 0.9 nM
logD at 2 min [1]: -4.26 ± 0.04
T/B (tumor-to-blood ratio) (LNCaP xenografts; 1 h after injection, unblocked): 15.95 ± 1.37
T/K (tumor-to-kidney ratio) (LNCaP xenografts; 1 h after injection, unblocked): 0.12 ± 0.04
T/M (tumor-to-muscle ratio) (LNCaP xenografts; 1 h after injection, unblocked): 37.30 ± 9.53
adrenal uptake (LNCaP xenografts; 1 h after injection, unblocked): 4.65 ± 1.75 %ID/g
blood uptake (LNCaP xenografts; 1 h after injection, unblocked): 0.52 ± 0.06 %ID/g
bone uptake (LNCaP xenografts; 1 h after injection, unblocked): 0.44 ± 0.09 %ID/g
brain uptake (LNCaP xenografts; 1 h after injection, unblocked): 0.04 ± 0.01 %ID/g
fat uptake (LNCaP xenografts; 1 h after injection, unblocked): 0.73 ± 0.26 %ID/g
heart uptake (LNCaP xenografts; 1 h after injection, unblocked): 0.33 ± 0.08 %ID/g
intestine uptake (LNCaP xenografts; 1 h after injection, unblocked): 0.33 ± 0.05 %ID/g
kidney uptake (LNCaP xenografts; 1 h after injection, unblocked): 71.70 ± 18.0 %ID/g
liver uptake (LNCaP xenografts; 1 h after injection, unblocked): 1.69 ± 0.19 %ID/g
lung uptake (LNCaP xenografts; 1 h after injection, unblocked): 1.39 ± 0.17 %ID/g
muscle uptake (LNCaP xenografts; 1 h after injection, unblocked): 0.23 ± 0.04 %ID/g
pancreas uptake (LNCaP xenografts; 1 h after injection, unblocked): 0.33 ± 0.05 %ID/g
spleen uptake (LNCaP xenografts; 1 h after injection, unblocked): 5.01 ± 0.64 %ID/g
stomach uptake (LNCaP xenografts; 1 h after injection, unblocked): 0.10 ± 0.03 %ID/g
testes uptake (LNCaP xenografts; 1 h after injection, unblocked): 0.67 ± 0.17 %ID/g
tumor uptake compared with ^18F-DCFPyL (LNCaP xenografts; 1 h after injection): No statistically significant differences
T/B (tumor-to-blood ratio) (LNCaP xenografts; [2]): 0.77 ± 0.48
T/K (tumor-to-kidney ratio) (LNCaP xenografts; [2]): 0.13 ± 0.02
T/M (tumor-to-muscle ratio) (LNCaP xenografts; [2]): 2.66 ± 1.60
adrenal uptake (LNCaP xenografts; [2]): 0.20 ± 0.05 %ID/g
blood uptake (LNCaP xenografts; [2]): 0.46 ± 0.24 %ID/g
bone uptake (LNCaP xenografts; [2]): 0.30 ± 0.06 %ID/g
brain uptake (LNCaP xenografts; [2]): 0.02 ± 0.00 %ID/g
fat uptake (LNCaP xenografts; [2]): 0.06 ± 0.01 %ID/g
heart uptake (LNCaP xenografts; [2]): 0.09 ± 0.02 %ID/g
intestine uptake (LNCaP xenografts; [2]): 0.31 ± 0.02 %ID/g
kidney uptake (LNCaP xenografts; [2]): 2.11 ± 0.19 %ID/g
liver uptake (LNCaP xenografts; [2]): 1.76 ± 0.17 %ID/g
lung uptake (LNCaP xenografts; [2]): 0.22 ± 0.03 %ID/g
muscle uptake (LNCaP xenografts; [2]): 0.12 ± 0.05 %ID/g
pancreas uptake (LNCaP xenografts; [2]): 0.06 ± 0.01 %ID/g
spleen uptake (LNCaP xenografts; [2]): 0.09 ± 0.03 %ID/g
stomach uptake (LNCaP xenografts; [2]): 0.06 ± 0.02 %ID/g
testes uptake (LNCaP xenografts; [2]): 0.08 ± 0.02 %ID/g
tumor uptake (LNCaP xenografts; 1 h after injection, unblocked, listed as 2): 8.3 ± 1.3 %ID/g
tumor uptake (LNCaP xenografts; 1 h after injection, unblocked, listed as [18F]2): 8.28 ± 1.25 %ID/g
tumor uptake (LNCaP xenografts; [2]): 0.27 ± 0.06 %ID/g
SMILES: C[N+](C)(Cc1cn(Cc2ccc(C(=O)NCCCC[C@H](NC(=O)N[C@@H](CCC(=O)O)C(=O)O)C(=O)O)cc2)nn1)C[B-](F)(F)F [^18F-2]
